Laboratory results: patent US5763625A, “Synthesis and use of β-lapachone analogs” (priority 1995, dated 1998)
Read-outs that look alike come from different tables or passages of the source.

Key:
[1] = molecular target: T1, purified human Topo I (Homo sapiens, UniProt P11387); experiment: Topo I inhibition, DNA unwinding assay; type: biochemical
T1 sequence (P11387 1-765): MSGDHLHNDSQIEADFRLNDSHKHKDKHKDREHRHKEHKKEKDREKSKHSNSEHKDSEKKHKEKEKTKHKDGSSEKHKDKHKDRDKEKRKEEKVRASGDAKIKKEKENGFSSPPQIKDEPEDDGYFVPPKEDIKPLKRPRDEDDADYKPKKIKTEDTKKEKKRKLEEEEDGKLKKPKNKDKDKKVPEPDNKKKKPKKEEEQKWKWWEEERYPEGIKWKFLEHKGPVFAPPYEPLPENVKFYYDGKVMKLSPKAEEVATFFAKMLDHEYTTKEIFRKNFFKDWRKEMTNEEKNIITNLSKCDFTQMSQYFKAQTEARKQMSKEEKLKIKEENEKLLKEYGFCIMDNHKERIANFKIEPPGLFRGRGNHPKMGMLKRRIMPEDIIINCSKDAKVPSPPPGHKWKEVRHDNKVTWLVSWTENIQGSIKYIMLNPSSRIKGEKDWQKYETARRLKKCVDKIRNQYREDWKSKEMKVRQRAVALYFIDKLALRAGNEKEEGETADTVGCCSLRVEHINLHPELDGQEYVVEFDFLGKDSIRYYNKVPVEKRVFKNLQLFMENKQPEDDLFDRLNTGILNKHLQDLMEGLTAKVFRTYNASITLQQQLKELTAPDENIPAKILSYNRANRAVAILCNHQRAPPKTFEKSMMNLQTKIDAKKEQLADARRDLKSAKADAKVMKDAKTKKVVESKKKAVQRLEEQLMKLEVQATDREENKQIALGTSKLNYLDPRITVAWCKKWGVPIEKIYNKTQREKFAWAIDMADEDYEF

[2] = in vitro; conditions: human, u1-mel cells
[3] = Stability in air, water or DMSO; conditions: solubilized in water or DMSO
[4] = system: human radioresistant melanoma (U1-Mel) cells; experiment: Radiosensitization of X-irradiated confluence-arrested U1-Mel cells (survival)
Text: Another set of confluence-arrested U1-Mel cells were irradiated and plated immediately for survival to prevent repair (i.e., NPT). Survival levels were corrected for loss of plating efficiency due to prolonged confluence-arrest and drug exposures alone.
A set of X-irradiated U1-Mel cells were trypsinized and replaced immediately after radiation to determine the survival of cells not allowed to repair (i.e., NPT).

[5] = Toxicity to unirradiated confluence-arrested U1-Mel cells; conditions: human
[6] = system: Topo I enzyme activity in U1-Mel cells; experiment: Down-regulation of Topo I activity in irradiated U1-Mel cells with ADPRT inhibitors; type: cell-based, human; conditions: 5 μM, 1 hour prior to or 4 hours immediately after 400 cGy
[7] = Water solubility; type: physicochemical
[8] = system: Rous sarcoma virus; conditions: Schaffner-Sabba et al., J. Med. Chem 27: 990-994, 1984; cited from earlier work
[9] = 10 μM, 4 Hr posttreatment after X-rays
[10] = 10 μM, 4 Hr posttreatment, 1% survival
[11] = 10 μM, 4 Hr posttreatment, 10% survival
[12] = at 10 μM, Table 3 footnote, survival level not stated
[13] = 100 μM, 4 Hr posttreatment after X-rays
[14] = 100 μM, 4 Hr posttreatment, 1% survival
[15] = 100 μM, 4 Hr posttreatment, 10% survival
[16] = 2 μM, 4 Hr posttreatment after X-rays
[17] = 4 μM, 4 Hr posttreatment after X-rays
[18] = 4 μM, 4 Hr posttreatment, 1% survival
[19] = 4 μM, 4 Hr posttreatment, 10% survival

## C=CCC1CC2=C(OC1(C)C)c1ccccc1C(=O)C2=O (stereo not shown)
[1]; DNA unwinding assay
  estimated Ki, Topo I: approximately 100 nM
  lowest concentration inhibiting Topo I (as little as): 10 nM
[2]
  viability at 4 h, 10 µM: 89 ± 3%
[3]
  time until loss of stability: > 4 days
[4]
  effect on lethality of radiation: synergistic enhancement of lethality
  optimal concentration range for enhancing lethality of X-irradiated cells: 10 to 40 µM
[4]; 10 μM for 4 hours prior to radiation
  effect on survival recovery: no affect on survival recovery
[4]; [9]
  Do: 54 ± 2 cGy
  Dq: 56 ± 4 cGy
[4]; [10]
  DER Values 1%: 3.6 ± 0.3
[4]; [11]
  DER Values 10%: 4.2 ± 0.2
[4]; 10 μM, 400 cGy
  optimal exposure time: 4 to 6 h
[4]; 10 μM, added immediately after radiation, at 10% survival levels
  dose enhancement ratios (DERs): 3.6±0.3
[4]; 400 cGy, 10 μM for 4 hours, then drug removed
  reversibility of radiosensitization: did not repair after drug removal
[4]; [12]
  dose enhancement ratios (DERs): 3.6 ± 0.3
[4]; dose not stated
  drug enhanced radiation value (DER value): 3.6
[4]; posttreatment addition
  rank among Topo I-active drugs at increasing sensitivity to X-irradiation: most effective agent

## CCC1(O)C(=O)OCc2c1cc1n(c2=O)Cc2cc3c(N)cccc3nc2-1 (racemic) [9-Amino-20(RS)-, 9-aminocamptothecin]
[2]
  viability at 4 h, 10 µM: 67 ± 5%
[4]; [9]
  Do: 109 ± 2 cGy
  Dq: 110 ± 2 cGy
[4]; [10]
  DER Values 1%: 2.9 ± 0.4
[4]; [11]
  DER Values 10%: 2.5 ± 0.3
[4]; [12]
  dose enhancement ratios (DERs): 2.9 ± 0.4

## CCC1(O)C(=O)OCc2c1cc1n(c2=O)Cc2cc3c(NC(=O)CN)cccc3nc2-1 (racemic) [9-Glycinamido-20(RS)-]
[5]
  viability at 4 h, 100 µM: 61 ± 3%
[4]; [13]
  Do: 278 ± 6 cGy
  Dq: 352 ± 4 cGy
[4]; [14]
  DER Values 1%: 1.4 ± 0.4
[4]; [15]
  DER Values 10%: 1.1 ± 0.1

## CCC1(N)C(=O)OCc2c1cc1n(c2=O)Cc2cc3ccccc3nc2-1 (racemic) [20-Amino-20(RS)-Deoxy(RS)]
[2]
  viability at 4 h, 10 µM: 64 ± 3%

## NC(=O)c1cccc(N)c1 [3-ABA, 3-aminobenzamide]
[6]
  effect on down-regulation of Topo I enzyme activity: prevented the down-regulation

## CC1(C)OC2=C(CC1O)C(=O)C(=O)c1ccccc12 (stereo not drawn) [3-hydroxy-β-lapachone]
[7]
  water solubility: water-soluble

## CCC1(O)C(=O)OCc2c1cc1n(c2=O)Cc2cc3cc4c(cc3nc2-1)OCO4 (stereo not shown) [10,11-Methylonedioxy-]
[5]
  viability at 4 h, 10 µM: 62 ± 7%
[4]
  DER Values 1%: 1.4 ± 0.1
  DER Values 10%: 1.2 ± 0.2
  Do: 254 ± 5 cGy
  Dq: 345 ± 3 cGy

## Cc1cccc2c1CCNC2=O [PD 1]
[2]
  viability at 5 h, 0.5 µM: 92 ± 1.6%
[4]; 0.5 μM, five hour exposure, 300 min
  survival of X-irradiated U1-Mel cells: 5±0.2%

## CC[C@@]1(O)C(=O)OCc2c1cc1n(c2=O)Cc2cc3c(CN(C)C)c(O)ccc3nc2-1 [Topotecan]
[5]
  viability at 4 h, 2 µM: 95 ± 3%
  viability at 4 h, 4 µM: 92 ± 4%
  viability at 4 h, 100 µM: 63 ± 7%
[4]; [16]
  Do: 186 ± 4 cGy
  Dq: 190 ± 6 cGy
[4]; 2 μM, 4 Hr posttreatment, 1% survival
  DER Values 1%: 1.6 ± 0.4
[4]; 2 μM, 4 Hr posttreatment, 10% survival
  DER Values 10%: 1.4 ± 0.6
[4]; [17]
  Do: 132 ± 5 cGy
  Dq: 127 ± 5 cGy
[4]; [18]
  DER Values 1%: 1.7 ± 0.3
[4]; [19]
  DER Values 10%: 1.6 ± 0.2
[4]; [13]
  Do: 113 ± 2 cGy
  Dq: 100 ± 3 cGy
[4]; [14]
  DER Values 1%: 2.7 ± 0.2
[4]; [15]
  DER Values 10%: 2.2 ± 0.2
[4]; [12]
  dose enhancement ratios (DERs): 2.3 ± .02

## CC[C@@]1(O)C(=O)OCc2c1cc1n(c2=O)Cc2cc3ccccc3nc2-1 [camptothecin]
[1]; drug added to the DNA before the enzyme
  estimated Ki, Topo I: 350 nM
[5]
  viability at 4 h, 4 µM: 54 ± 2%
[4]
  DER Values 1%: 2.1 ± 0.6
  DER Values 10%: 1.8 ± 0.1
  Do: 162 ± 7 cGy
  Dq: 132 ± 2 cGy
  dose enhancement ratios (DERs): 2.1±0.6

## CC1(C)CCC2=C(O1)c1ccccc1C(=O)C2=O [β-lapachone]
[1]; DNA unwinding assay
  estimated Ki, Topo I: 150 nM
[8]
  life of Rous sarcoma virus infected chickens: prolongs the life
[2]
  viability at 4 h, 4 µM: 79 ± 4%
[4]; [17]
  Do: 154 ± 8 cGy
  Dq: 152 ± 21 cGy
[4]; [18]
  DER Values 1%: 1.4 ± 0.4
[4]; [19]
  DER Values 10%: 1.5 ± 0.3
[4]; at 4 μM, at 10% survival levels
  dose enhancement ratios (DERs): 1.4±0.4
[4]; at 4 μM, Table 3 footnote, survival level not stated
  dose enhancement ratios (DERs): 1.4 ± 0.4
